In brackets after ≈: the same amount, converted by molar mass. Where two headings read alike, the source gives them in different places.
Tests used:
Aspergillus flavus = assay: MIC, YAG medium, Aspergillus flavus; format: cell-based; settings: YAG medium; for MIC: Aspergillus flavus
Outline: (§1)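 In YAG medium (1% glucose, 1% ammonium chloride, 0.5% yeast extract), Aspergillus strains at 1-2×10^4 cfu/ml were read after 24 hrs at 35° C, with MIC at >70% growth inhibition by OD485. C. albicans was run in MOPS-buffered RPMI, pH7.0, at 1-2×10^3 cfu/ml for 24-48 hrs, with MIC at >80% inhibition. The drug range was 50-0.05 mg/L.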

A Terreus 49 = assay: MIC, YAG medium, A Terreus 49; format: cell-based, Aspergillus terreus; settings: YAG medium; for MIC: Aspergillus terreus, read-out: MIC A Terreus 49
Outline: as §1

Aspergillus terreus = assay: MIC, YAG medium, Aspergillus terreus; format: cell-based; settings: YAG medium; for MIC: Aspergillus terreus
Outline: as §1

Aspergillus niger = assay: MIC, YAG medium, Aspergillus niger; format: cell-based; settings: YAG medium; for MIC: Aspergillus niger
Outline: as §1

[1] = system: Aspergillus fumigatus AF210; assay: MIC, YAG medium, Aspergillus fumigatus AF210; format: cell-based; settings: YAG medium; for MIC: Aspergillus fumigatus, AF210, read-out: MIC A Fum. 210
Outline: as §1

[2] = system: Aspergillus fumigatus AF293; assay: MIC, YAG medium, Aspergillus fumigatus AF293; format: cell-based; settings: YAG medium; for MIC: Aspergillus fumigatus, AF293, read-out: MIC A Fum. 293
Outline: as §1

MIC (Aspergillus flavus; read-out: MIC A Flavus 01)	MIC (A Terreus 49)	MIC (Aspergillus terreus; read-out: MIC A Terreus 4)	MIC (Aspergillus niger; read-out: MIC A Niger 1)	MIC [1]	MIC [2]	MIC A Flavus 01 (Aspergillus flavus)	MIC A Terreus 49 (A Terreus 49)	MIC A Terreus 4 (Aspergillus terreus)	MIC A Niger 1 (Aspergillus niger)	MIC A Fum. 210 [1]	MIC A Fum. 293 [2]	MIC (Aspergillus flavus; read-out: MIC A Flavus)	MIC (Aspergillus terreus; read-out: MIC A Terreus)	MIC (Aspergillus niger; read-out: MIC A Niger)	SMILES
0.031 µg/mL (≈ 0.0741 µM)	0.031 µg/mL (≈ 0.0741 µM)	0.06 µg/mL (≈ 0.143 µM)	0.031 µg/mL (≈ 0.0741 µM)	1.6 µg/mL (≈ 3.82 µM)	0.5 µg/mL (≈ 1.19 µM)	–	–	–	–	–	–	–	–	–	COc1ccc(NC(=O)C(=O)c2c(-c3ccc(F)cc3)cc3ccccn23)c(OC)c1 [Example 149, N-(2,4-Dimethoxy-phenyl)-2-[2-(4-fluoro-phenyl)-indolizin-3-yl]-2-oxo-acetamide]
0.031 µg/mL (≈ 0.0774 µM)	0.004 µg/mL (≈ 0.00999 µM)	0.031 µg/mL (≈ 0.0774 µM)	0.031 µg/mL (≈ 0.0774 µM)	0.5 µg/mL (≈ 1.25 µM)	0.5 µg/mL (≈ 1.25 µM)	–	–	–	–	–	–	–	–	–	COc1ccc(NC(=O)C(=O)c2c(-c3ccccc3)cc3ccccn23)c(OC)c1 [Example 145, N-(2,4-Dimethoxy-phenyl)-2-oxo-(2-phenyl-indolizin-3-yl)-acetamide]
–	–	–	–	–	–	0.1 µg/mL	0.05 µg/mL	0.1 µg/mL	0.05 µg/mL	0.8 µg/mL	0.2 µg/mL	–	–	–	CC(=NO)c1ccc(NC(=O)C(=O)c2c(-c3ccccc3)cc3ccccn23)cc1 (mixture of isomers) [Example 250, N-(4-{1-[(E/Z)-Hydroxyimino]-ethyl}-phenyl)-2-oxo-2-(2-phenyl-indolizin-3-yl)-acetamide]
0.004 µg/mL (≈ 0.00982 µM)	0.002 µg/mL (≈ 0.00491 µM)	0.004 µg/mL (≈ 0.00982 µM)	0.015 µg/mL (≈ 0.0368 µM)	0.031 µg/mL (≈ 0.0761 µM)	0.031 µg/mL (≈ 0.0761 µM)	–	–	–	–	–	–	–	–	–	CC(C)(C#N)c1cccc(NC(=O)C(=O)c2c(-c3ccccc3)cc3ccccn23)c1 [Example 228, N-[3-(Cyano-dimethyl-methyl)-phenyl]-2-oxo-2-(2-phenyl-indolizin-3-yl)-acetamide]
0.1 µg/mL (≈ 0.243 µM)	0.06 µg/mL (≈ 0.146 µM)	0.015 µg/mL (≈ 0.0364 µM)	0.008 µg/mL (≈ 0.0194 µM)	> 50 µg/mL	> 50 µg/mL	–	–	–	–	–	–	–	–	–	O=C(Nc1ccc(F)cc1F)C(=O)c1c(-c2ccc(F)cc2F)cc2ccccn12 [Example 265, N-(2,4-Difluoro-phenyl)-2-[2-(2,4-difluoro-phenyl)-indolizin-3-yl]-2-oxo-acetamide]
0.05 µg/mL (≈ 0.117 µM)	0.008 µg/mL (≈ 0.0188 µM)	0.015 µg/mL (≈ 0.0352 µM)	0.05 µg/mL (≈ 0.117 µM)	0.05 µg/mL (≈ 0.117 µM)	0.05 µg/mL (≈ 0.117 µM)	–	–	–	–	–	–	–	–	–	CC1(c2ccc(NC(=O)C(=O)c3c(-c4ccccc4)cc4ccccn34)cc2)OCCO1 [Example 264, N-[4-(2-Methyl-[1,3]dioxolan-2-yl)-phenyl]-2-oxo-2-(2-phenyl-indolizin-3-yl)-acetamide]
1.6 µg/mL (≈ 3.86 µM)	0.2 µg/mL (≈ 0.483 µM)	0.4 µg/mL (≈ 0.965 µM)	3.1 µg/mL (≈ 7.48 µM)	3.1 µg/mL (≈ 7.48 µM)	3.1 µg/mL (≈ 7.48 µM)	–	–	–	–	–	–	–	–	–	C=CCOc1cc(F)ccc1NC(=O)C(=O)c1c(-c2ccccc2)cc2ccccn12 [Example 247, N-(2-Allyloxy-4-fluoro-phenyl)-2-oxo-2-(2-phenyl-indolizin-3-yl)-acetamide]
0.03 µg/mL (≈ 0.0666 µM)	0.015 µg/mL (≈ 0.0333 µM)	0.03 µg/mL (≈ 0.0666 µM)	0.8 µg/mL (≈ 1.78 µM)	0.2 µg/mL (≈ 0.444 µM)	0.4 µg/mL (≈ 0.888 µM)	–	–	–	–	–	–	–	–	–	CN(C)c1ccc(NC(=O)C(=O)c2c(-c3ccccc3)cc3ccccn23)cc1-c1ncco1 [Example 292, N-(4-Dimethylamino-3-oxazol-2-yl-phenyl)-2-oxo-2-(2-phenyl-indolizin-3-yl)-acetamide]
3.1 µg/mL	1.6 µg/mL	3.1 µg/mL	12.5 µg/mL	6.25 µg/mL	6.25 µg/mL	–	–	–	–	–	–	–	–	–	C[S+]1CCN(c2ccc(NC(=O)C(=O)c3c(-c4ccccc4)cc4ccccn34)cc2)CC1.[I-] [Example 299, 1-Methyl-4-{4-[2-oxo-2-(2-phenyl-indolizin-3-yl)-acetylamino]-phenyl}-thiomorpholin-1-ium iodide]
–	0.015 µg/mL (≈ 0.0367 µM)	–	–	0.25 µg/mL (≈ 0.612 µM)	0.25 µg/mL (≈ 0.612 µM)	–	–	–	–	–	–	0.031 µg/mL (≈ 0.0759 µM)	0.015 µg/mL (≈ 0.0367 µM)	0.015 µg/mL (≈ 0.0367 µM)	O=C(Nc1ccc(C(F)(F)F)cc1)C(=O)c1c(-c2ccccc2)cc2ccccn12 [Example 304, 2-Oxo-2-(2-phenyl-indolizin-3-yl)-N-(4-trifluoromethyl-phenyl)-acetamide]
0.05 µg/mL (≈ 0.126 µM)	0.015 µg/mL (≈ 0.0378 µM)	0.05 µg/mL (≈ 0.126 µM)	0.05 µg/mL (≈ 0.126 µM)	0.1 µg/mL (≈ 0.252 µM)	0.1 µg/mL (≈ 0.252 µM)	–	–	–	–	–	–	–	–	–	CC(=O)Cc1ccc(NC(=O)C(=O)c2c(-c3ccccc3)cc3ccccn23)cc1 [Example 284, 2-Oxo-N-[4-(2-oxo-propyl)-phenyl]-2-(2-phenyl-indolizin-3-yl)-acetamide]
0.015 µg/mL (≈ 0.0368 µM)	0.008 µg/mL (≈ 0.0196 µM)	0.015 µg/mL (≈ 0.0368 µM)	0.015 µg/mL (≈ 0.0368 µM)	0.03 µg/mL (≈ 0.0736 µM)	0.062 µg/mL (≈ 0.152 µM)	–	–	–	–	–	–	–	–	–	CC(C)(C#N)c1ccc(NC(=O)C(=O)c2c(-c3ccccc3)cc3ccccn23)cc1 [Example 221, N-[4-(Cyano-dimethyl-methyl)-phenyl]-2-oxo-2-(2-phenyl-indolizin-3-yl)-acetamide]
–	0.015 µg/mL (≈ 0.0367 µM)	–	–	0.5 µg/mL (≈ 1.22 µM)	0.5 µg/mL (≈ 1.22 µM)	–	–	–	–	–	–	0.062 µg/mL (≈ 0.151 µM)	0.031 µg/mL (≈ 0.0757 µM)	0.015 µg/mL (≈ 0.0367 µM)	O=C(Nc1ccc(Cl)cc1Cl)C(=O)c1c(-c2ccccc2)cc2ccccn12 [Example 305, N-(2,4-Dichloro-phenyl)-2-oxo-2-(2-phenyl-indolizin-3-yl)-acetamide]
–	0.001 µg/mL (≈ 0.00236 µM)	–	–	0.05 µg/mL (≈ 0.118 µM)	0.008 µg/mL (≈ 0.0189 µM)	–	–	–	–	–	–	0.008 µg/mL (≈ 0.0189 µM)	0.002 µg/mL (≈ 0.00472 µM)	0.008 µg/mL (≈ 0.0189 µM)	O=C(Nc1ccc(N2CCCCC2)cc1)C(=O)c1c(-c2ccccc2)cc2ccccn12 [Example 307, 2-Oxo-2-(2-phenyl-indolizin-3-yl)-N-(4-piperidin-1-yl-phenyl)-acetamide]
0.015 µg/mL (≈ 0.0392 µM)	0.004 µg/mL (≈ 0.0105 µM)	0.002 µg/mL (≈ 0.00523 µM)	0.03 µg/mL (≈ 0.0784 µM)	0.06 µg/mL (≈ 0.157 µM)	0.06 µg/mL (≈ 0.157 µM)	–	–	–	–	–	–	–	–	–	Cc1ccc(NC(=O)C(=O)c2c(-c3ccccc3)cc3ccccn23)c(C)c1C [Example 259, 2-Oxo-2-(2-phenyl-indolizin-3-yl)-N-(2,3,4-trimethyl-phenyl)-acetamide]
0.004 µg/mL (≈ 0.00908 µM)	0.008 µg/mL (≈ 0.0182 µM)	0.008 µg/mL (≈ 0.0182 µM)	0.004 µg/mL (≈ 0.00908 µM)	0.05 µg/mL (≈ 0.113 µM)	0.05 µg/mL (≈ 0.113 µM)	–	–	–	–	–	–	–	–	–	CCCN(CCC)c1ccc(NC(=O)C(=O)c2c(-c3ccccc3)cc3ccccn23)cn1 [Example 289, N-(6-Dipropylamino-pyridin-3-yl)-2-oxo-2-(2-phenyl-indolizin-3-yl)-acetamide]
0.05 µg/mL (≈ 0.103 µM)	0.1 µg/mL (≈ 0.205 µM)	0.2 µg/mL (≈ 0.41 µM)	0.8 µg/mL (≈ 1.64 µM)	0.4 µg/mL (≈ 0.82 µM)	0.4 µg/mL (≈ 0.82 µM)	–	–	–	–	–	–	–	–	–	CN(Cc1ccccc1)C(=O)c1cccc(NC(=O)C(=O)c2c(-c3ccccc3)cc3ccccn23)c1 [Example 263, N-Benzyl-N-methyl-3-[2-oxo-2-(2-phenyl-indolizin-3-yl)-acetylamino]-benzamide]
0.008 µg/mL (≈ 0.0226 µM)	0.008 µg/mL (≈ 0.0226 µM)	0.004 µg/mL (≈ 0.0113 µM)	0.015 µg/mL (≈ 0.0423 µM)	0.062 µg/mL (≈ 0.175 µM)	0.062 µg/mL (≈ 0.175 µM)	–	–	–	–	–	–	–	–	–	Cc1cccc(NC(=O)C(=O)c2c(-c3ccccc3)cc3ccccn23)c1 [Example 206, 2-Oxo-2-(2-phenyl-indolizin-3-yl)-N-m-tolyl-acetamide]
0.015 µg/mL (≈ 0.034 µM)	0.008 µg/mL (≈ 0.0181 µM)	0.008 µg/mL (≈ 0.0181 µM)	0.03 µg/mL (≈ 0.0679 µM)	0.015 µg/mL (≈ 0.034 µM)	0.03 µg/mL (≈ 0.0679 µM)	–	–	–	–	–	–	–	–	–	O=C(Nc1ccc(N2CCSCC2)cc1)C(=O)c1c(-c2ccccc2)cc2ccccn12 [Example 258, 2-Oxo-2-(2-phenyl-indolizin-3-yl)-N-(4-thiomorpholin-4-yl-phenyl)-acetamide]
0.008 µg/mL (≈ 0.0209 µM)	0.008 µg/mL (≈ 0.0209 µM)	0.015 µg/mL (≈ 0.0391 µM)	0.031 µg/mL (≈ 0.0808 µM)	0.062 µg/mL (≈ 0.162 µM)	0.06 µg/mL (≈ 0.156 µM)	–	–	–	–	–	–	–	–	–	CN(C)c1ccc(NC(=O)C(=O)c2c(-c3ccccc3)cc3ccccn23)cc1 [Example 203, N-(4-Dimethylamino-phenyl)-2-oxo-2-(2-phenyl-indolizin-3-yl)-acetamide]
0.125 µg/mL (≈ 0.342 µM)	0.12 µg/mL (≈ 0.328 µM)	0.5 µg/mL (≈ 1.37 µM)	0.25 µg/mL (≈ 0.684 µM)	1.6 µg/mL (≈ 4.38 µM)	1.6 µg/mL (≈ 4.38 µM)	–	–	–	–	–	–	–	–	–	N#Cc1ccc(NC(=O)C(=O)c2c(-c3ccccc3)cc3ccccn23)cc1 [Example 150, N-(4-Cyano-phenyl)-2-oxo-2-(2-phenyl-indolizin-3-yl)-acetamide]
0.031 µg/mL (≈ 0.0827 µM)	0.008 µg/mL (≈ 0.0213 µM)	0.031 µg/mL (≈ 0.0827 µM)	0.031 µg/mL (≈ 0.0827 µM)	0.12 µg/mL (≈ 0.32 µM)	0.25 µg/mL (≈ 0.667 µM)	–	–	–	–	–	–	–	–	–	O=C(Nc1ccc(Cl)cc1)C(=O)c1c(-c2ccccc2)cc2ccccn12 [Example 281, N-(4-Chloro-phenyl)-2-oxo-2-(2-phenyl-indolizin-3-yl)-acetamide]
0.031 µg/mL (≈ 0.0797 µM)	0.004 µg/mL (≈ 0.0103 µM)	0.008 µg/mL (≈ 0.0206 µM)	0.062 µg/mL (≈ 0.159 µM)	0.25 µg/mL (≈ 0.643 µM)	0.12 µg/mL (≈ 0.309 µM)	–	–	–	–	–	–	–	–	–	Cc1ccc(Cl)cc1NC(=O)C(=O)c1c(-c2ccccc2)cc2ccccn12 [Example 246, N-(5-Chloro-2-methyl-phenyl)-2-oxo-2-(2-phenyl-indolizin-3-yl)-acetamide]
